# From PubChem BioAssay (NCI)
#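 Results reflect a 48-hour exposure of cells in 96-well plates to compound at five concentrations. Definition used: TGI = concentration required for complete inhibition of growth.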
# What was measured:
# Assay in all cases: DTP human tumour cell line panel, 48 h
# ACHN renal = system: ACHN renal
# HCT-15 colon = system: HCT-15 colon
# BT-549 breast = system: BT-549 breast
# NCI-H460 lung = system: NCI-H460 lung
# PC-3 prostate = system: PC-3 prostate
# SW-620 colon = system: SW-620 colon
# HT29 colon = system: HT29 colon
# TK-10 renal = system: TK-10 renal
# UO-31 renal = system: UO-31 renal
# SF-539 CNS = system: SF-539 CNS
# U251 CNS = system: U251 CNS
# DU-145 prostate = system: DU-145 prostate
# HS 578T breast = system: HS 578T breast
# OVCAR-3 ovarian = system: OVCAR-3 ovarian
# SNB-19 CNS = system: SNB-19 CNS
# MDA-MB-231 breast = system: MDA-MB-231 breast
# OVCAR-5 ovarian = system: OVCAR-5 ovarian
# MOLT-4 leukemia = system: MOLT-4 leukemia
# SR leukemia = system: SR leukemia
# HCC-2998 colon = system: HCC-2998 colon
# MALME-3M melanoma = system: MALME-3M melanoma
# K-562 leukemia = system: K-562 leukemia
# RXF 393 renal = system: RXF 393 renal
# MDA-N = system: MDA-N
# HL-60(TB) leukemia = system: HL-60(TB) leukemia
# SF-268 CNS = system: SF-268 CNS
# 786-0 renal = system: 786-0 renal
# KM12 colon = system: KM12 colon
# SK-MEL-5 melanoma = system: SK-MEL-5 melanoma
# OVCAR-4 ovarian = system: OVCAR-4 ovarian
# HCT-116 colon = system: HCT-116 colon
# A549 NSCLC = system: A549 NSCLC
# MCF7 breast = system: MCF7 breast
# T-47D breast = system: T-47D breast
# M14 melanoma = system: M14 melanoma
# SN12C renal = system: SN12C renal
# SK-MEL-2 melanoma = system: SK-MEL-2 melanoma
# SF-295 CNS = system: SF-295 CNS
# CAKI-1 renal = system: CAKI-1 renal
# UACC-62 melanoma = system: UACC-62 melanoma
# COLO 205 colon = system: COLO 205 colon
# MDA-MB-435 = system: MDA-MB-435
# HOP-62 NSCLC = system: HOP-62 NSCLC
# NCI-H226 lung = system: NCI-H226 lung
# IGROV1 ovarian = system: IGROV1 ovarian
# SK-OV-3 ovarian = system: SK-OV-3 ovarian
# CCRF-CEM leukemia = system: CCRF-CEM leukemia
# LOX IMVI melanoma = system: LOX IMVI melanoma
# HOP-92 NSCLC = system: HOP-92 NSCLC
# SK-MEL-28 melanoma = system: SK-MEL-28 melanoma
# EKVX NSCLC = system: EKVX NSCLC
# SNB-75 CNS = system: SNB-75 CNS
# OVCAR-8 ovarian = system: OVCAR-8 ovarian
# A498 renal = system: A498 renal
# NCI-H23 lung = system: NCI-H23 lung
# NCI-H522 lung = system: NCI-H522 lung
# NCI/ADR-RES ovarian = system: NCI/ADR-RES ovarian
# UACC-257 melanoma = system: UACC-257 melanoma
# RPMI-8226 leukemia = system: RPMI-8226 leukemia
smiles,measurement,setting,value
COc1ccc(C2=Cc3nc2c(-c2ccccc2)c2ccc([nH]2)c(-c2ccccc2)c2nc(c(-c4ccccc4)c4ccc([nH]4)c3-c3ccccc3)C=C2)cc1,TGI,ACHN renal,> 100 µM
same,TGI,HCT-15 colon,> 100 µM
same,TGI,BT-549 breast,> 100 µM
same,TGI,NCI-H460 lung,> 100 µM
same,TGI,PC-3 prostate,> 100 µM
same,TGI,SW-620 colon,> 100 µM
same,TGI,HT29 colon,> 100 µM
same,TGI,TK-10 renal,> 100 µM
same,TGI,UO-31 renal,> 100 µM
same,TGI,SF-539 CNS,> 100 µM
same,TGI,U251 CNS,91.3 µM
same,TGI,DU-145 prostate,> 100 µM
same,TGI,HS 578T breast,> 100 µM
same,TGI,OVCAR-3 ovarian,> 100 µM
same,TGI,SNB-19 CNS,> 100 µM
same,TGI,MDA-MB-231 breast,> 100 µM
same,TGI,OVCAR-5 ovarian,> 100 µM
same,TGI,MOLT-4 leukemia,> 100 µM
same,TGI,SR leukemia,> 100 µM
same,TGI,HCC-2998 colon,> 100 µM
same,TGI,MALME-3M melanoma,> 100 µM
same,TGI,K-562 leukemia,> 100 µM
same,TGI,RXF 393 renal,> 100 µM
same,TGI,MDA-N,> 100 µM
same,TGI,HL-60(TB) leukemia,> 100 µM
same,TGI,SF-268 CNS,> 100 µM
same,TGI,786-0 renal,> 100 µM
same,TGI,KM12 colon,> 100 µM
same,TGI,SK-MEL-5 melanoma,> 100 µM
same,TGI,OVCAR-4 ovarian,> 100 µM
same,TGI,HCT-116 colon,> 100 µM
same,TGI,A549 NSCLC,> 100 µM
same,TGI,MCF7 breast,> 100 µM
same,TGI,T-47D breast,> 100 µM
same,TGI,M14 melanoma,> 100 µM
same,TGI,SN12C renal,> 100 µM
same,TGI,SK-MEL-2 melanoma,> 100 µM
same,TGI,SF-295 CNS,> 100 µM
same,TGI,CAKI-1 renal,> 100 µM
same,TGI,UACC-62 melanoma,> 100 µM
same,TGI,COLO 205 colon,> 100 µM
same,TGI,MDA-MB-435,> 100 µM
same,TGI,HOP-62 NSCLC,> 100 µM
same,TGI,NCI-H226 lung,> 100 µM
same,TGI,IGROV1 ovarian,> 100 µM
same,TGI,SK-OV-3 ovarian,> 100 µM
same,TGI,CCRF-CEM leukemia,> 100 µM
same,TGI,LOX IMVI melanoma,> 100 µM
same,TGI,HOP-92 NSCLC,> 100 µM
same,TGI,SK-MEL-28 melanoma,> 100 µM
same,TGI,EKVX NSCLC,> 100 µM
same,TGI,SNB-75 CNS,> 100 µM
same,TGI,OVCAR-8 ovarian,> 100 µM
same,TGI,A498 renal,> 100 µM
same,TGI,NCI-H23 lung,> 100 µM
CC1CC(c2ccccc2)Nc2nc3ccccc3n21 (stereo unspecified),TGI,ACHN renal,> 100 µM
same,TGI,HCT-15 colon,> 100 µM
same,TGI,BT-549 breast,> 100 µM
same,TGI,NCI-H522 lung,> 100 µM
same,TGI,NCI-H460 lung,> 100 µM
same,TGI,PC-3 prostate,> 100 µM
same,TGI,SW-620 colon,> 100 µM
same,TGI,HT29 colon,> 100 µM
same,TGI,TK-10 renal,> 100 µM
same,TGI,NCI/ADR-RES ovarian,> 100 µM
same,TGI,UO-31 renal,> 100 µM
same,TGI,SF-539 CNS,> 100 µM
same,TGI,UACC-257 melanoma,> 100 µM
same,TGI,U251 CNS,> 100 µM
same,TGI,HS 578T breast,> 100 µM
same,TGI,OVCAR-3 ovarian,> 100 µM
same,TGI,SNB-19 CNS,> 100 µM
same,TGI,MDA-MB-231 breast,> 100 µM
same,TGI,OVCAR-5 ovarian,> 100 µM
same,TGI,MOLT-4 leukemia,> 100 µM
same,TGI,SR leukemia,> 100 µM
same,TGI,MALME-3M melanoma,> 100 µM
same,TGI,K-562 leukemia,> 100 µM
same,TGI,RXF 393 renal,> 100 µM
same,TGI,MDA-N,> 100 µM
same,TGI,HL-60(TB) leukemia,> 100 µM
same,TGI,SF-268 CNS,> 100 µM
same,TGI,786-0 renal,> 100 µM
same,TGI,KM12 colon,> 100 µM
same,TGI,SK-MEL-5 melanoma,> 100 µM
same,TGI,OVCAR-4 ovarian,> 100 µM
same,TGI,HCT-116 colon,> 100 µM
same,TGI,A549 NSCLC,> 100 µM
same,TGI,MCF7 breast,> 100 µM
same,TGI,T-47D breast,> 100 µM
same,TGI,M14 melanoma,> 100 µM
same,TGI,SK-MEL-2 melanoma,> 100 µM
same,TGI,SF-295 CNS,> 100 µM
same,TGI,CAKI-1 renal,> 100 µM
same,TGI,UACC-62 melanoma,> 100 µM
same,TGI,COLO 205 colon,> 100 µM
same,TGI,MDA-MB-435,> 100 µM
same,TGI,HOP-62 NSCLC,> 100 µM
same,TGI,NCI-H226 lung,> 100 µM
same,TGI,IGROV1 ovarian,> 100 µM
same,TGI,SK-OV-3 ovarian,> 100 µM
same,TGI,RPMI-8226 leukemia,> 100 µM
same,TGI,CCRF-CEM leukemia,> 100 µM
same,TGI,LOX IMVI melanoma,> 100 µM
same,TGI,HOP-92 NSCLC,> 100 µM
same,TGI,SK-MEL-28 melanoma,> 100 µM
same,TGI,EKVX NSCLC,> 100 µM
same,TGI,SNB-75 CNS,> 100 µM
same,TGI,OVCAR-8 ovarian,> 100 µM
same,TGI,A498 renal,> 100 µM
same,TGI,NCI-H23 lung,> 100 µM
CN/N=C(/C=C/c1ccccc1)C(C)C,TGI,ACHN renal,> 100 µM
same,TGI,HCT-15 colon,> 100 µM
same,TGI,BT-549 breast,> 100 µM
same,TGI,NCI-H522 lung,> 100 µM
same,TGI,PC-3 prostate,> 100 µM
same,TGI,SW-620 colon,> 100 µM
same,TGI,HT29 colon,> 100 µM
same,TGI,TK-10 renal,> 100 µM
same,TGI,NCI/ADR-RES ovarian,> 100 µM
same,TGI,UO-31 renal,> 100 µM
same,TGI,SF-539 CNS,> 100 µM
same,TGI,UACC-257 melanoma,> 100 µM
same,TGI,U251 CNS,> 100 µM
same,TGI,DU-145 prostate,> 100 µM
same,TGI,HS 578T breast,> 100 µM
same,TGI,OVCAR-3 ovarian,> 100 µM
same,TGI,SNB-19 CNS,> 100 µM
same,TGI,OVCAR-5 ovarian,> 100 µM
same,TGI,MOLT-4 leukemia,> 100 µM
same,TGI,SR leukemia,> 100 µM
same,TGI,HCC-2998 colon,> 100 µM
same,TGI,MALME-3M melanoma,> 100 µM
same,TGI,K-562 leukemia,> 100 µM
same,TGI,RXF 393 renal,> 100 µM
same,TGI,MDA-N,> 100 µM
same,TGI,HL-60(TB) leukemia,> 100 µM
same,TGI,SF-268 CNS,> 100 µM
same,TGI,786-0 renal,> 100 µM
same,TGI,KM12 colon,> 100 µM
same,TGI,SK-MEL-5 melanoma,> 100 µM
same,TGI,OVCAR-4 ovarian,> 100 µM
same,TGI,HCT-116 colon,> 100 µM
same,TGI,A549 NSCLC,> 100 µM
same,TGI,MCF7 breast,> 100 µM
same,TGI,T-47D breast,> 100 µM
same,TGI,M14 melanoma,> 100 µM
same,TGI,SN12C renal,> 100 µM
same,TGI,SK-MEL-2 melanoma,> 100 µM
same,TGI,SF-295 CNS,> 100 µM
same,TGI,CAKI-1 renal,> 100 µM
same,TGI,UACC-62 melanoma,> 100 µM
same,TGI,COLO 205 colon,> 100 µM
same,TGI,MDA-MB-435,> 100 µM
same,TGI,HOP-62 NSCLC,> 100 µM
same,TGI,NCI-H226 lung,> 100 µM
same,TGI,IGROV1 ovarian,> 100 µM
same,TGI,SK-OV-3 ovarian,> 100 µM
same,TGI,RPMI-8226 leukemia,> 100 µM
same,TGI,CCRF-CEM leukemia,> 100 µM
same,TGI,LOX IMVI melanoma,> 100 µM
same,TGI,SK-MEL-28 melanoma,> 100 µM
same,TGI,EKVX NSCLC,> 100 µM
same,TGI,SNB-75 CNS,> 100 µM
same,TGI,OVCAR-8 ovarian,> 100 µM
same,TGI,NCI-H23 lung,> 100 µM
